Data from patent US20200215233A1, “ANTIMICROBIAL COATING” (Boulos & Cooper Pharmaceuticals Pty Ltd, priority 2017, published 2020).

Legend:
[1] = Solubility of BCP3 in water and base; format: physicochemical
[2] = test system: methicillin resistant-S. aureus (MRSA) (ATCC 43300); assay: Determination of the minimum inhibitory concentration (MRSA); format: cell-based; conditions: Staphylococcus aureus, 24 h at 37° C., lowest concentration at which greater than 90% inhibition of bacterial growth was observed
Protocol: (§1) Three bacterial strains—two Gram-positive bacteria: Staphylococcus aureus (ATCC 29213) (MSSA) and methicillin resistant-S. aureus (MRSA) (ATCC 43300); and a Gram-negative Pseudomonas aeruginosa (ATCC 27853) were used in this study. Bacterial stocks (stored at −80° C. in nutrient broth with 15% glycerol) were streaked onto nutrient agar (Oxoid, Basingstoke, UK) plates for use as the working stock. From the stock an overnight bacterial culture grown in nutrient broth was diluted 1:100 into specific growth media, including tryptic soya broth for S. aureus and Luria-Bertani broth for P. aeruginosa. The final concentration of bacteria was made up to 1×10^5 cfu/mL for the inhibition assays. BCP3 was suspended in respective bacterial media to afford 5 mg/mL suspension. The stock suspension was then twice and ten times diluted to finally obtain concentrations ranging from 8×10^−4-5 mg/mL. Aliquots of 20 μL of each concentration were then added in quadruplicate to wells containing 80 μL of 1×10^5 cfu/mL bacterial solutions in a 96 well plate format for final well concentrations of 1.6×10^−4-1 mg/mL of BCP3. […] After 24 h, 100 μL from each well was transferred into a TOPS 96 well plate (Nunc) and the optical density was measured at 600 nm using a BioTek plate reader. The inhibition of bacterial growth was determined relative to the control (%). […]

[3] = test system: Pseudomonas aeruginosa (ATCC 27853); assay: Determination of the minimum inhibitory concentration (P. aeruginosa); format: cell-based
Protocol: as §1

[4] = test system: Staphylococcus aureus (ATCC 29213) (MSSA); assay: Determination of the minimum inhibitory concentration (MSSA); format: cell-based; conditions: 24 h at 37° C., lowest concentration at which greater than 90% inhibition of bacterial growth was observed
Protocol: as §1

L929 cells = assay: Determination of minimal BCP3 cytotoxic concentration (MTS assay); format: cell-based
Protocol: BCP3 was sterilized via incubation in 80% ethanol in a sterile glass vial for 1 h prior to being vacuum dried at 120° C. for 5 h (0.2 mbar). Subsequently BCP3 was suspended in complete minimum essential medium (MEM, containing 10% (v/v) FBS and 1% (v/v) non-essential amino acids) to afford a 5 mg/mL suspension. The stock suspension was then twice and ten times diluted to finally obtain concentrations ranging from 8×10^−4-5 mg/mL. Aliquots of 20 μL of each concentration were then added in quadruplicate to wells previously seeded with L929 cells containing 80 μL of complete MEM (18,000 cells per well, 16 h) in a 96 well plate format for final well concentrations of 1.6×10^−4-1 mg/mL. Additional controls were added to wells containing pre-seeded cells; medium alone, 5%, and 10% (v/v) dimethylsulfoxide (DMSO, Sigma) in medium. The plate was subsequently incubated for 21 h (37° C., 5% CO2). An 3-(4,5-dimethylthiazol-2-yl)-5(3-carboxymethoxyphenyl)-2-(4-sulfophenyl)-2H-tetrazolium (MTS) assay was then utilized to determine cell viability based on metabolic activity of cells. Stock solutions of 4 mM MTS (Promega) in PBS and 3 mM of phenazine methosulfate (PMS, Sigma) in PBS were used to make up a mixture of MTS and PMS reagent. A working assay reagent solution was made up by addition of 2 mL of MTS and 100 μL of PMS stock solutions per 10 mL of complete medium. Media was removed from the sample and control wells and washed with 120 μL of fresh medium; subsequently 100 μL of the assay reagent solution was added to wells then incubated for 3 h at 37° C., 5% CO2. For colorimetric analysis, plates were read in a BioTek plate reader at wavelengths 490 nm and 655 nm. The difference in readings at the two wavelengths was used to calculate cell attachment compared to controls.

With `O=C(O)c1ccc(/C=C/c2cc(/C=C/c3ccc(C(=O)O)cc3)c(/C=C/c3ccc(C(=O)O)cc3)cc2/C=C/c2ccc(C(=O)O)cc2)cc1` [Formula E] the “solubility in the presence of bases” value ([1]; in the presence of bases such as NaOH) was “highly soluble”, the “solubility in water” value ([1]; water) was “minimally soluble” and the MIC [2] was 15.6 mg/L. For the same compound, the MIC ([3]; Pseudomonas aeruginosa, ATCC27853, P. aeruginosa, 24 h at 37° C., lowest concentration at which greater than 90% inhibition of bacterial growth was observed) was greater than 1000 mg/L, the “maximum inhibition of P. aeruginosa growth” value ([3]; at 1 mg/mL BCP3, 24 h) was 32% and the MIC [4] was 15.6 mg/L. The “cytotoxicity” value (L929 cells; L929 cells, up to 1 mg/mL) was “non-cytotoxic”, the L929 cell viability (L929 cells; at 1 mg/mL BCP3, 21 h, compared to TOPS control) was 85% and the L929 cell viability (L929 cells; at all concentrations, 1.6×10^−4-1 mg/mL, 21 h) was “above 70%”.
